What follows are compounds tested against T1, PD-1/PD-L1 (Homo sapiens, UniProt Q9NZQ7) (assay: PD-1/PD-L1 Homogenous Time-Resolved Fluorescence (HTRF) binding assay). Conditions: PD-L1-His 10 nM, PD-1-Ig 20 nM; numeric IC50; read-out: Range or IC50.
T1 construct: made in house; host or cells: HEK293T
How it was run: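 Additional pairs run were PD-1-Ig with PD-L2-His (20 & 5 nM) and CD80-His with PD-L1-Ig (100 & 10 nM), all human proteins. Buffer: dPBS plus 0.1% BSA, 0.05% Tween-20; time-resolved FRET read-out via 1 nM Eu-cryptate anti-Ig and 20 nM APC anti-His, final concentrations.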

T1 sequence (Q9NZQ7 with tags, fused parts or gaps): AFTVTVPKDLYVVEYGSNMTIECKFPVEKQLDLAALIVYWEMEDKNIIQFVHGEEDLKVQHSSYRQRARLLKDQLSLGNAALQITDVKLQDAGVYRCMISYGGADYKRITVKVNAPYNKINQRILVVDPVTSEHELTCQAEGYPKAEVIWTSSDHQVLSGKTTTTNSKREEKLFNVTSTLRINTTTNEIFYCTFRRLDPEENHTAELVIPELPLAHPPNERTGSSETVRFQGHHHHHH

| IC50 [nM] | Structure (SMILES) |
| --- | --- |
| 12 | Cc1c(COc2cc(OCc3cncc(C#N)c3)c(CN3CCCC[C@H]3C(=O)O)cc2Cl)cccc1-c1cccc(OCCCNCCc2ncn(C)c2Cl)c1C [Example 2231, (2S)-1-(5-chloro-4-((3′-(3-(2-(5-chloro-1-methyl-1H-imidazol-4-yl)ethylamino)propoxy)-2,2′-dimethylbiphenyl-3-yl)methoxy)-2-((5-cyanopyridin-3-yl)methoxy)benzyl)piperidine-2-carboxylic Acid] |

Same assay, conditions: PD-L1-His 10 nM, PD-1-Ig 20 nM; value given as range class; read-out: Range or IC50

| IC50 [nM] | Structure (SMILES) |
| --- | --- |
| 0.21 to 10 | Cc1c(COc2cc(OCc3cncc(C#N)c3)c(CN[C@H](CO)C(=O)O)cc2Cl)cccc1-c1cccc(OCCCN2CCC(O)(C(=O)O)CC2)c1C [Example 1036, (R)-1-(3-((3′-((4-(((1-carboxy-2-hydroxyethyl)amino)methyl)-2-chloro-5-((5-cyanopyridin-3-yl)methoxy)phenoxy)methyl)-2,2′-dimethyl-[1,1′-biphenyl]-3-yl)oxy)propyl)-4-hydroxypiperidine-4-carboxylic Acid] |
| 0.21 to 10 | COC(=O)C1(O)CCN(CCCOc2cccc(-c3cccc(COc4cc(OCc5cncc(C#N)c5)c(CN[C@H](CO)C(=O)O)cc4Cl)c3C)c2C)CC1 [Example 1029, (R)-2-((5-chloro-2-((5-cyanopyridin-3-yl)methoxy)-4-((3′-(3-(4-hydroxy-4-(methoxycarbonyl)piperidin-1-yl)propoxy)-2,2′-dimethyl-[1,1′-biphenyl]-3-yl)methoxy)benzyl)amino)-3-hydroxypropanoic Acid] |
| 0.21 to 10 | Cc1c(COc2cc(OCc3cncc(C#N)c3)c(CN[C@H](CO)C(=O)O)cc2Cl)cccc1-c1cccc(OCCCN2CCC(O)(C(=O)O)CC2)c1 [Example 1033, (R)-1-(3-((3′-((4-(((1-carboxy-2-hydroxyethyl)amino)methyl)-2-chloro-5-((5-cyanopyridin-3-yl)methoxy)phenoxy)methyl)-2′-methyl-[1,1′-biphenyl]-3-yl)oxy)propyl)-4-hydroxypiperidine-4-carboxylic Acid] |
| 0.21 to 10 | Cc1c(COc2cc(OCc3cncc(C#N)c3)c(CO)cc2Cl)cccc1-c1cccc(OCCCNC[C@H](O)CO)c1Cl [Example 2005, (S)-5-((4-chloro-5-((2′-chloro-3′-(3-((2,3-dihydroxypropyl)amino)propoxy)-2-methyl-[1,1′-biphenyl]-3-yl)methoxy)-2-(hydroxymethyl)phenoxy)methyl)nicotinonitrile] |
| 0.21 to 10 | Cc1c(COc2cc(OCc3cncc(C#N)c3)c(CN[C@@](C)(CO)C(=O)O)cc2Cl)cccc1-c1cccc(OCCCN2CCC[C@H](C(=O)O)C2)c1C [Example 2264, (3S)-1-(3-(3′-((4-(((S)-2-carboxy-1-hydroxypropan-2-ylamino)methyl)-2-chloro-5-((5-cyanopyridin-3-yl)methoxy)phenoxy)methyl)-2,2′-dimethylbiphenyl-3-yloxy)propyl)piperidine-3-carboxylic Acid] |
| 0.21 to 10 | Cc1c(COc2cc(OCc3cncc(C#N)c3)c(CN3CCCC[C@H]3C(=O)O)cc2Cl)cccc1-c1cccc(OCCCN2CCCCC2CC(=O)O)c1C (stereo partly drawn) [Example 2251, (2S)-1-(4-((3′-(3-(2-(carboxymethyl)piperidin-1-yl)propoxy)-2,2′-dimethylbiphenyl-3-yl)methoxy)-5-chloro-2-((5-cyanopyridin-3-yl)methoxy)benzyl)piperidine-2-carboxylic Acid] |
| 0.21 to 10 | CNC1CCN(CCCOc2cccc(-c3cccc(COc4cc(OCc5cncc(C#N)c5)c(CN5CCCC[C@H]5C(=O)O)cc4Cl)c3C)c2C)CC1 [Example 2269, (2S)-1-(5-chloro-2-((5-cyanopyridin-3-yl)methoxy)-4-((2,2′-dimethyl-3′-(3-(4-(methylamino)piperidin-1-yl)propoxy)biphenyl-3-yl)methoxy)benzyl)piperidine-2-carboxylic Acid] |
| 10 to 100 | Cc1c(COc2cc(OCc3cncc(C#N)c3)c(CN3CCCC[C@H]3C(=O)O)cc2Cl)cccc1-c1cccc(OCCCN2CCC(CO)(C(=O)O)CC2)c1C [Example 1110, (S)-1-(4-((3′-(3-(4-carboxy-4-(hydroxymethyl)piperidin-1-yl)propoxy)-2,2′-dimethyl-[1,1′-biphenyl]-3-yl)methoxy)-5-chloro-2-((5-cyanopyridin-3-yl)methoxy)benzyl)piperidine-2-carboxylic Acid] |
| 100 to 2000 | CCN(CC)C(=O)c1cccc(-c2cccc(COc3cc(OCc4cncc(C#N)c4)c(CNC(C)(CO)CO)cc3Cl)c2C)c1C [Example 4045, 3′-((2-chloro-5-((5-cyanopyridin-3-yl)methoxy)-4-(((1,3-dihydroxy-2-methylpropan-2-yl)amino)methyl)phenoxy)methyl)-N,N-diethyl-2,2′-dimethyl-[1,1′-biphenyl]-3-carboxamide] |
| 100 to 2000 | Cc1c(COc2cc(OCc3cncc(C#N)c3)c(CN3CCCC[C@H]3C(=O)O)cc2Cl)cccc1-c1cccc(C(=O)N2CCCC2)c1C [Example 4037, (S)-1-(5-chloro-2-((5-cyanopyridin-3-yl)methoxy)-4-((2,2′-dimethyl-3′-(pyrrolidine-1-carbonyl)-[1,1′-biphenyl]-3-yl)methoxy)benzyl)piperidine-2-carboxylic Acid] |
| 10 to 100 | Cc1c(COc2cc(OCc3cncc(C#N)c3)c(CN[C@H](CO)C(=O)O)cc2Cl)cccc1-c1cccc(OCC(=O)N2CC[C@H](O)C2)c1 [Example 1003, (R)-2-((5-chloro-2-((5-cyanopyridin-3-yl)methoxy)-4-((3′-(2-((S)-3-hydroxypyrrolidin-1-yl)-2-oxoethoxy)-2-methyl-[1,1′-biphenyl]-3-yl)methoxy)benzyl)amino)-3-hydroxypropanoic Acid] |
| 0.21 to 10 | Cc1c(COc2cc(OCc3cncc(C#N)c3)c(CN[C@@](C)(CO)C(=O)O)cc2Cl)cccc1-c1cccc(OCCCN2CCC(NC(=O)C(F)(F)F)C2)c1C (stereo partly drawn) [Example 2274, (2S)-2-((5-chloro-2-((5-cyanopyridin-3-yl)methoxy)-4-((2,2′-dimethyl-3′-(3-(3-(2,2,2-trifluoroacetamido)pyrrolidin-1-yl)propoxy)-[1,1′-biphenyl]-3-yl)methoxy)benzyl)amino)-3-hydroxy-2-methylpropanoic Acid] |
| 0.21 to 10 | COC(=O)[C@@H]1C[C@@H](O)CN1CCCOc1cccc(-c2cccc(COc3cc(OCc4cncc(S(C)(=O)=O)c4)c(CN4CCCC[C@H]4C(=O)O)cc3Cl)c2C)c1Cl [Example 1069, (S)-1-(5-chloro-4-((2′-chloro-3′-(3-((2S,4R)-4-hydroxy-2-(methoxycarbonyl)pyrrolidin-1-yl)propoxy)-2-methyl-[1,1′-biphenyl]-3-yl)methoxy)-2-((5-(methylsulfonyl)pyridin-3-yl)methoxy)benzyl)piperidine-2-carboxylic Acid] |
| 0.21 to 10 | Cc1c(COc2cc(OCc3ccc(F)c(F)c3)c(CNC(CO)(CO)CO)cc2Cl)cccc1-c1cccc(OCCCN2CC[C@@H](O)C2)c1C [Example 4511, (R)-2-((5-chloro-2-((3,4-difluorobenzyl)oxy)-4-((3′-(3-(3-hydroxypyrrolidin-1-yl)propoxy)-2,2′-dimethyl-[1,1′-biphenyl]-3-yl)methoxy)benzyl)amino)-2-(hydroxymethyl)propane-1,3-diol] |
| 0.21 to 10 | Cc1c(COc2cc(OCc3cncc(C#N)c3)c(CNC(CO)CO)cc2Cl)cccc1-c1cccc(OCCCN2CCCCC2)c1Cl [Example 2051, 5-((4-chloro-5-((2′-chloro-2-methyl-3′-(3-(piperidin-1-yl)propoxy)-[1,1′-biphenyl]-3-yl)methoxy)-2-(((1,3-dihydroxypropan-2-yl)amino)methyl)phenoxy)methyl)nicotinonitrile] |
| 0.21 to 10 | Cc1c(OCCCN2CC[C@@H](O)C2)cccc1-c1cccc(COc2cc(OCc3cncc(C#N)c3)c(CN(CCc3cncc(C#N)c3)C(CO)CO)cc2Cl)c1Cl [Example 2312, (R)-5-(2-((5-chloro-4-((2-chloro-3′-(3-(3-hydroxypyrrolidin-1-yl)propoxy)-2′-methyl-[1,1′-biphenyl]-3-yl)methoxy)-2-((5-cyanopyridin-3-yl)methoxy)benzyl)(1,3-dihydroxypropan-2-yl)amino)ethyl)nicotinonitrile] |
| 100 to 2000 | Cc1c(COc2cc(OCc3cncc(C#N)c3)c(CN3CCOC[C@H]3C(=O)O)cc2Cl)cccc1-c1cccc(C(=O)N2CCOCC2)c1C [Example 4054, (S)-4-(5-chloro-2-((5-cyanopyridin-3-yl)methoxy)-4-((2,2′-dimethyl-3′-(morpholine-4-carbonyl)-[1,1′-biphenyl]-3-yl)methoxy)benzyl)morpholine-3-carboxylic Acid] |
| 0.21 to 10 | Cc1c(COc2cc(OCc3cncc(C#N)c3)c(CNC(CO)(CO)CO)cc2Cl)cccc1-c1cccc(OCCCNC[C@H](O)CO)c1C [Example 2282, (S)-5-((4-chloro-2-(((1,3-dihydroxy-2-(hydroxymethyl)propan-2-yl)amino)methyl)-5-((3′-(3-((2,3-dihydroxypropyl)amino)propoxy)-2,2′-dimethyl-[1,1′-biphenyl]-3-yl)methoxy)phenoxy)methyl)nicotinonitrile] |
| 10 to 100 | CCN(CC)C(=O)c1cccc(-c2cccc(COc3cc(OCc4cncc(C#N)c4)c(CN4C[C@@H](O)C[C@H]4C(=O)O)cc3Cl)c2C)c1C [Example 4043, (2S,4S)-1-(5-chloro-2-((5-cyanopyridin-3-yl)methoxy)-4-((3′-(diethylcarbamoyl)-2,2′-dimethyl-[1,1′-biphenyl]-3-yl)methoxy)benzyl)-4-hydroxypyrrolidine-2-carboxylic Acid] |
| 0.21 to 10 | Cc1c(COc2cc(OCc3cncc(C#N)c3)c(CN3CCCC[C@H]3C(=O)O)cc2Cl)cccc1-c1cccc(OCCCNCC(O)CO)c1C (stereo partly drawn) [Example 2235, (2S)-1-(5-chloro-2-((5-cyanopyridin-3-yl)methoxy)-4-((3′-(3-(2,3-dihydroxypropylamino)propoxy)-2,2′-dimethylbiphenyl-3-yl)methoxy)benzyl)piperidine-2-carboxylic Acid] |

— patent publication US10745382B2 (BRISTOL-MYERS SQUIBB COMPANY, priority 2015, dated 2020)
